The record followed here is patent US20220264883A1, “IMIDAZOTHIAZOLE COMPOUNDS AND METHODS FOR TREATING PLANT NEMATODE INFECTIONS” (The Governing Council of the University of Toronto, priority 2019, published 2022).

The subject of assay [1] is M. incognita infective juveniles. Description: Meloidogyne incognita dose-response experiments (infective J2 juveniles, FIG. 2). Type of assay: in vivo. The note with it: for nematicidal activity on M. incognita infective juveniles: 5, 15, 45 micromolar, third day after water rinse. The procedure: M. incognita (Kofoid & White) Chitwood Race 1 (originally isolated in Maryland) was used for all experiments, and were maintained on pepper (Capsicum annuum L.) cv. PA-136 in a greenhouse as previously described^64. Infective J2 juveniles were collected as described in ref. 65. The microwell dose-response experiments were carried out similarly to previously described protocols^64, 66. In brief, 100 J2 s, in 10 μL of deionized water, were added to the wells of 96-well polystyrene plates, after which 190 μL of deionized water containing dissolved chemical, or DMSO alone, was added to each well. The final concentration of DMSO in each well was 0.5% (v/v), except for the water only control which contained no DMSO and no added chemicals. The final concentrations of the chemicals for each dose-response experiment were 5, 15, and 45 μM. The wells were covered with a plastic adhesive strip, and the lids of the plates were sealed with parafilm. The plates were incubated at 25° C. The fraction of active worms was quantified by counting the number of mobile and immobile worms after 1 and 2 days of incubation, and then dividing the number of mobile worms by the total number of worms in the well. After 2 days of incubation, the chemicals were removed and replaced with deionized water (i.e. the water rinse) and the fraction of active worms was quantified 1 day later. A failure of the worms to recover after rinsing with water is consistent with them having been killed by the chemical treatment. Four technical replicates were performed for each treatment.

Assay [2] has as its system C. elegans anthelmintic/nematicide-resistant mutants. Description: whole plant or invertebrate. The assay is classed as in vivo. The note with it: Caenorhabditis elegans. The procedure:
Forty microliters of an HB101 bacterial suspension in liquid NGM (see above) was added to each well of a 96-well flat-bottom culture plate, after which approximately 25 synchronized L1 worms, in 10 μl of M9 buffer (see ref. 59 for the recipe), were added to each well. The synchronized L1 worms were obtained from an embryo preparation performed the previous day (see ref. 59 for the protocol). For the L1 assays, 0.5 μl of chemical solution (or DMSO alone) was immediately added to the wells using a multichannel pipette, the final DMSO concentration is 1% (v/v). The worms were incubated for 3 days at 20° C. and the number of viable animals was counted. […] Although the counts were performed after 3 days of incubation in the chemical, it was noted that the L1s were dead within 24 hours of the addition of the chemicals. For the L2/L3 assays, the worms were incubated in the absence of chemical for 1 day at 20° C. until they reached the L2/L3 stage, at which point chemical was added as described above. The worms were then allowed to incubate for 2 days at 20° C. and the number of viable animals was counted as described for the L1 assay. For the L4 assays, the worms were incubated for 2 days at 20° C. before the addition of chemicals. The L4-stage worms were then incubated in chemical for an additional day before quantifying the number of viable animals. The adult assays were performed the same way as the L4 assays, however HT115 E. coli carrying the empty dsRNA expressing vector L4440 was used in place of HB101 and the worms were cultured at 25° C. as opposed to 20° C. for the entirety of the experiment. The HT115 suspension was made by concentrating a bacterial culture, with an OD600 of ˜ 0.8, five-fold with liquid NGM containing 1 mM IPTG and 100 μg/ml carbenicillin. The HT115 cells were induced with 1 mM IPTG for one hour before concentrating with NGM.
The dose-response experiments for the anthelmintic/nematicide-resistant mutants were carried out as described for the L1 dose-response assays. One notable exception is the aldicarb-resistant strain PR1152. This strain grows slowly, and so the viability counts were performed 5 days after addition of the chemical, as opposed to 3 days, to allow the DMSO control worms to reach adulthood.
At least three biological replicates were performed for each dose-response assay. For each biological replicate, two technical replicates were performed and the numbers of viable animals for each technical replicate were combined (i.e. ˜50 worms assayed per concentration). The number of viable worms at each concentration was divided by the corresponding DMSO control value to give the “relative viability” for each concentration. The “relative viability” values were then averaged across the biological replicates. LC50 values were calculated using Graphpad Prism. The concentration values were log-transformed and a four-parameter logistic curve was fitted to the dose-response data by non-linear regression, from which the LC50 values were extracted.

Where [3] appears, read: 120 h, read-out: LC50 in strain PR1152.
The mark [4] stands for this setting: read-out: LC50 in strain CB1072.
Setting [5] is: read-out: LC50 in strain CB3474.
The mark [6] stands for this setting: read-out: LC50 in strain CF1038.
Where [7] appears, read: read-out: LC50 in strain DA1316.
Setting [8] is: read-out: LC50 in strain NM1968.
Where [9] appears, read: read-out: LC50 in strain RP2674.

SMILES strings stand for the structures. Read-outs that look alike come from different tables or passages of the source.

As to `Clc1ccc(-c2cn3ccsc3n2)cc1` [Ia], the “nematicidal activity on M. incognita infective juveniles” value in assay [1] is given as “demonstrated nematicidal activity at one or more concentrations”. Moreover, the “inhibitory effects on worm activity compared with tioxazafen” value in assay [1] (each time point, every concentration tested) is on record as “outperformed the commercial nematicide tioxazafen”. The same compound came in with a nematode lethality in assay [1] (lowest concentration assayed (5 micromolar)) of 100%. The LC50 was found to be 3.7 µM in assay [2] (setting [3]); 5.7 µM in assay [2] (setting [4]); 6.4 µM in assay [2] (setting [5]); 5.7 µM in assay [2] (setting [6]); 4.6 µM in assay [2] (setting [7]); 4.4 µM in assay [2] (setting [8]). In addition, the LC50 in assay [2] (setting [9]) amounted to 4.9 µM; in assay [2] (read-out: LC50 in strain VC731) it was 6.4 µM.

As for `Fc1ccc(-c2cn3ccsc3n2)cc1` [Ib], the “nematicidal activity on M. incognita infective juveniles” value in assay [1] is “demonstrated nematicidal activity at one or more concentrations”. The LC50 is 14.9 µM in assay [2] (setting [3]); 24.3 µM in assay [2] (setting [4]); 17 µM in assay [2] (setting [5]); 16 µM in assay [2] (setting [6]); 14.5 µM in assay [2] (setting [7]); 16 µM in assay [2] (setting [8]). Also, the LC50 in assay [2] (read-out: LC50 in strain RB2119) turned out to be 27.5 µM; in assay [2] (setting [9]) it was 16.4 µM; in assay [2] (read-out: LC50 in strain VC731), 28.5 µM.
